Measured values reported in publication PMC3867298 (Clinical cancer research : an official journal of the …, 2010).
Like-named read-outs stand apart in the source and are kept apart here. Marks after values point to notes of the source that are not given here.

What was measured:
[1] = system: patients with advanced solid tumors
[2] = system: MDA-MB-231 breast cancer xenograft; conditions: MDA-MB-231 xenograft, with reduced tumor vascularization (CD31); cited from earlier work
advanced solid tumors = experiment: Antitumor activity by modified RECIST and CA125; assay type: in vivo, human
[3] = system: plasma soluble VEGFR2 (sVEGFR2); experiment: Plasma soluble VEGFR2 ELISA; assay type: in vivo, human; conditions: cycle 1, day 28 (95% CI 5,086, 6,113); baseline cycle 1 day 1 8,419 pg/mL; P < 0.001
[4] = cohort 2, 80 mg/m^2, 4 patients
[5] = cohort 3, 120 mg/m^2, 3 patients
[6] = cohort 4, 200 mg/m^2, 7 patients
[7] = cohort 5, 160 mg/m^2, 8 patients
[8] = expansion, 160 mg/m^2, 38 patients
[9] = treatment-related, worst grade per patient, all cycles, N = 67

Q: For `Cc1cc(Nc2cc(N3CCN(C)CC3)nc(/C=C/c3ccccc3)n2)n[nH]1` [ENMD-2076], which “No. patients with dose reductions” value ([1]; cohort 1, 60 mg/m^2, 7 patients) is on record?
A: Its value is 1 (14%).

Q: And the “No. of patients with DLT (cycle 1)” value [1, 4]?
A: The value was 0.

Q: What about the “No. of patients with dose delays” value [1, 4] of the same compound?
A: The value was 3 (75%).

Q: And the “No. patients with dose reductions” value [1, 4]?
A: The value was 1 (25%).

Q: And the “No. of patients with DLT (cycle 1)” value [1, 5]?
A: The value was 0.

Q: And the “No. of patients with dose delays” value [1, 5]?
A: The value was 1 (33%).

Q: And the “No. patients with dose reductions” value [1, 5]?
A: Its value is 0.

Q: What about the “No. of patients with dose delays” value [1, 6] of the same compound?
A: Its value is 7 (100%).

Q: What about the “No. patients with dose reductions” value [1, 6] of the same compound?
A: The value was 3 (43%).

Q: What about the “No. of patients with dose delays” value [1, 7] of the same compound?
A: The value was 3 (38%).

Q: And the “No. patients with dose reductions” value [1, 7]?
A: The value was 1 (13%).

Q: What about the “Patients with fatigue of grade 3 to 4 severity” value ([1]; expanded 160 mg/m^2 cohort) of the same compound?
A: The value was 2 patients.

Q: And the “Patients with tooth discoloration” value ([1]; expanded 160 mg/m^2 cohort)?
A: Its value is “Four”.

Q: What about the “Patients with grade 3/4 neutropenia” value ([1]; expanded 160 mg/m^2 cohort, 2 of 38) of the same compound?
A: Its value is 5%.

Q: And the “Patients with grade 1/2 neutropenia” value ([1]; expanded 160 mg/m^2 cohort, 3 of 38)?
A: Its value is 8%.

Q: And the Patients with fatigue ([1]; expanded 160 mg/m^2 cohort, 12/38)?
A: Its Patients with fatigue is 32%.

Q: And the “No. of patients with DLT (met the definition of DLT)” value [1, 8]?
A: Its value is 12 ^§.

Q: And the “No. of patients with dose delays” value [1, 8]?
A: The value was 24 (63%).

Q: And the “No. patients with dose reductions” value [1, 8]?
A: The value was 14 (37%).

Q: What about the “Patients in whom hypertension resulted in dose delay or reduction” value ([1]; in vivo) of the same compound?
A: Its value is 16%.

Q: What about the “Recommended phase 2 dose” value ([1]; oral once daily, continuous dosing) of the same compound?
A: The value was 160 mg/m^2.

Q: What about the “Maximum tolerated dose (MTD)” value ([1]; oral, continuous once daily dosing) of the same compound?
A: Its value is 160 mg/m^2.

Q: What about the “Median time to onset of hypertension following initial dosing” value ([1]; range 2–60 days) of the same compound?
A: Its value is 14 days.

Q: And the “Patients with hypertension of grade 3/4 severity” value ([1]; total patients)?
A: The value was 21%.

Q: What about the “Anorexia, any grade” value [1, 9] of the same compound?
A: The value was 24%.

Q: What about the “Anorexia, grade 3, No. of patients” value [1, 9] of the same compound?
A: The value was 0.

Q: And the “Anorexia, grade 4, No. of patients” value [1, 9]?
A: The value was 0.

Q: And the “Constipation, any grade” value [1, 9]?
A: Its value is 15%.

Q: What about the “Constipation, any grade, No. of patients” value [1, 9] of the same compound?
A: Its value is 10.

Q: What about the “Constipation, grade 3, No. of patients” value [1, 9] of the same compound?
A: The value was 0.

Q: What about the “Constipation, grade 4, No. of patients” value [1, 9] of the same compound?
A: Its value is 0.

Q: What about the “Dehydration, any grade, No. of patients” value [1, 9] of the same compound?
A: Its value is 12.

Q: And the “Dehydration, grade 3” value [1, 9]?
A: The value was 1%.

Q: What about the “Dehydration, grade 3, No. of patients” value [1, 9] of the same compound?
A: Its value is 1.

Q: What about the “Dehydration, grade 4, No. of patients” value [1, 9] of the same compound?
A: The value was 0.

Q: And the “Diarrhea, any grade, No. of patients” value [1, 9]?
A: The value was 17.

Q: And the “Diarrhea, grade 3” value [1, 9]?
A: Its value is 3%.

Q: And the “Diarrhea, grade 3, No. of patients” value [1, 9]?
A: The value was 2.

Q: And the “Diarrhea, grade 4, No. of patients” value [1, 9]?
A: The value was 0.

Q: What about the “Dysgeusia, any grade” value [1, 9] of the same compound?
A: Its value is 10%.

Q: What about the “Dysgeusia, any grade, No. of patients” value [1, 9] of the same compound?
A: The value was 7.

Q: And the “Dysgeusia, grade 3, No. of patients” value [1, 9]?
A: The value was 0.

Q: What about the “Dysgeusia, grade 4, No. of patients” value [1, 9] of the same compound?
A: The value was 0.

Q: And the “Dyspnea, any grade, No. of patients” value [1, 9]?
A: Its value is 8.

Q: And the “Dyspnea, grade 3” value [1, 9]?
A: Its value is 4%.

Q: What about the “Dyspnea, grade 3, No. of patients” value [1, 9] of the same compound?
A: Its value is 3.

Q: And the “Dyspnea, grade 4, No. of patients” value [1, 9]?
A: Its value is 0.

Q: What about the “Fatigue, any grade” value [1, 9] of the same compound?
A: Its value is 31%.

Q: What about the “Fatigue, any grade, No. of patients” value [1, 9] of the same compound?
A: Its value is 21.

Q: What about the “Fatigue, grade 3” value [1, 9] of the same compound?
A: Its value is 3%.

Q: What about the “Fatigue, grade 3, No. of patients” value [1, 9] of the same compound?
A: The value was 2.

Q: And the “Fatigue, grade 4, No. of patients” value [1, 9]?
A: The value was 0.

Q: What about the “Glossodynia, any grade, No. of patients” value [1, 9] of the same compound?
A: Its value is 11.

Q: What about the “Glossodynia, grade 3, No. of patients” value [1, 9] of the same compound?
A: Its value is 0.

Q: And the “Glossodynia, grade 4, No. of patients” value [1, 9]?
A: The value was 0.

Q: And the “Hypertension, any grade, No. of patients” value [1, 9]?
A: Its value is 37.

Q: And the “Hypertension, grade 3, No. of patients” value [1, 9]?
A: The value was 12.

Q: And the “Hypertension, grade 4” value [1, 9]?
A: The value was 3%.

Q: What about the “Hypertension, grade 4, No. of patients” value [1, 9] of the same compound?
A: Its value is 2.

Q: What about the “Mucositis, any grade” value [1, 9] of the same compound?
A: The value was 15%.

Q: And the “Mucositis, any grade, No. of patients” value [1, 9]?
A: The value was 10.

Q: And the “Mucositis, grade 3, No. of patients” value [1, 9]?
A: The value was 0.

Q: And the “Mucositis, grade 4, No. of patients” value [1, 9]?
A: Its value is 0.

Q: And the “Nausea/vomiting, any grade, No. of patients” value [1, 9]?
A: Its value is 26.

Q: What about the “Nausea/vomiting, grade 3, No. of patients” value [1, 9] of the same compound?
A: The value was 0.

Q: And the “Nausea/vomiting, grade 4, No. of patients” value [1, 9]?
A: The value was 0.

Q: What about the “Patients reporting related adverse events, grade 3” value [1, 9] of the same compound?
A: Its value is 28%.

Q: What about the “Patients reporting related adverse events, grade 3, No. of patients” value [1, 9] of the same compound?
A: Its value is 19.

Q: And the “Patients reporting related adverse events, grade 4” value [1, 9]?
A: The value was 9%.

Q: And the “Patients reporting related adverse events, grade 4, No. of patients” value [1, 9]?
A: The value was 6.

Q: And the Tumor response [2]?
A: Its Tumor response is “regressions”.

Q: What about the “Colorectal cancer patients with SD ≥ 12 weeks” value (advanced solid tumors; 19 colorectal cancer patients, 5 patients) of the same compound?
A: The value was 26%.

Q: What about the “Ovarian cancer patients with PR or SD ≥ 12 weeks” value (advanced solid tumors; 20 ovarian cancer patients, all dose levels, twelve patients) of the same compound?
A: Its value is 60%.

Q: What about the “Partial responses (PR) as best response” value (advanced solid tumors; 58 evaluable patients, 2 patients, 1 confirmed, both ovarian cancer) of the same compound?
A: Its value is 3%.

Q: What about the “Progressive disease (PD) as best response” value (advanced solid tumors; 58 evaluable patients, 7 patients) of the same compound?
A: Its value is 12%.

Q: What about the “Patients with decreases in tumor measurements from baseline not qualifying as PR” value (advanced solid tumors; twenty patients) of the same compound?
A: The value was 30%.

Q: And the “Mean plasma sVEGFR2” value [3]?
A: The value was 5,600 pg/mL.
